Results taken from patent publication US9284308B2, “Methylene linked quinolinyl modulators of RORγt” (Janssen Pharmaceutica NV, priority 2013, dated 2016).
Structures can show the parent of a compound that is named as a salt.

Key:
[1] = system: IL-17 production by CD4 T cells; test: Human Th17 assay; type: cell-based; conditions: IL-17 production by human CD4 T cells
Description: The human Th17 assay tests the effect of RORγt modulatory compounds on IL-17 production by CD4 T cells under conditions which favor Th17 differentiation. Total CD4^+ T cells were isolated from the peripheral blood mononuclear cells (PBMC) of healthy donors using a CD4^+ T cell isolation kit II, following the manufacturer's instructions (Miltenyi Biotec). […] 50 μL of compound at titrated concentrations in DMSO were added into each well at final DMSO concentration at 0.2%. Cells were incubated for 1 hour, then 50 μL of Th17 cell differentiation medium was added to each well. The final concentrations of antibodies and cytokines (R&D Systems) in differentiation medium were: 3×10^6/mL anti-CD3/CD28 beads (prepared using human T cell activation/expansion kit, Miltenyi Biotec), 10 μg/mL anti-IL4, 10 μg/mL anti-IFNγ, 10 ng/mL IL1β, 10 ng/mL IL23, 50 ng/mL IL6, 3 ng/mL TGFβ and 20 U/mL IL2. Cells were cultured at 37° C. and 5% CO2 for 3 days. Supernatants were collected and the accumulated IL-17 in culture was measured by using MULTI-SPOT® Cytokine Plate following manufacture's instruction (Meso Scale Discovery). The plate was read using Sector Imager 6000, and IL-17 concentration was extrapolated from the standard curve. The IC50s were determined by GraphPad.

[2] = biological target: T1, human RORγt ligand binding domain (RORγt LBD) (Homo sapiens, UniProt P51449); test: RORγt ThermoFluor assay (ligand binding affinity from protein thermal stability)
T1 construct: His-tag (N); TurboTEV protease cleavage site (ENLYFQG) (N); made in house; host or cells: E. coli (pHIS1, modified pET vector)
T1 sequence (P51449 with tags, fused parts or gaps): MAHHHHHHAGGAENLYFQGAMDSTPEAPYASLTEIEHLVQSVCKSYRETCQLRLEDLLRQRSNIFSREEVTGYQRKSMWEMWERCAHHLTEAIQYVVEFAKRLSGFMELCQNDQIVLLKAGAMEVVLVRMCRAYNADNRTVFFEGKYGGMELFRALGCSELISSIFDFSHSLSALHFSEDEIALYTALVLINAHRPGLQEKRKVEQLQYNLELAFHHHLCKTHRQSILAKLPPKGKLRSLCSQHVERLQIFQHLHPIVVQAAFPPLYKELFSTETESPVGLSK
Description: This approach is applicable to a wide variety of systems, and rigorous in theoretical interpretation through quantitation of equilibrium binding constants (KD).
The shift in the melting point described as a ΔTm is proportional to the concentration and affinity of the ligand.
RORγt ThermoFluor® Assay Construct
Protein and compound solutions are dispensed into black 384-well polypropylene PCR microplates (Abgene) and overlayed with silicone oil (1 μL, Fluka, type DC 200) to prevent evaporation.
Bar-coded assay plates are robotically loaded onto a thermostatically controlled PCR-type thermal block and then heated at a typical ramp-rate of 1° C./min for all experiments. Fluorescence was measured by continuous illumination with UV light (Hamamatsu LC6) supplied via fiber optic and filtered through a band-pass filter (380-400 nm; >6 OD cutoff). Fluorescence emission of the entire 384-well plate was detected by measuring light intensity using a CCD camera (Sensys, Roper Scientific) filtered to detect 500±25 nm, resulting in simultaneous and independent readings of all 384 wells. Images were collected at each temperature, and the sum of the pixel intensity in a given area of the assay plate was recorded versus temperature. Reference wells contained RORγt without compounds, and the assay conditions were as follows: • 0.065 mg/mL RORγt • 60 μM 1,8-ANS • 100 mM Hepes, pH 7.0 • 10 mM NaCl • 2.5 mM GSH • 0.002% Tween-20
Project compounds were arranged in a pre-dosed mother plate (Greiner Bio-one) wherein compounds are serially diluted in 100% DMSO by 1:2 from a high concentration of 10 mM over 12 columns within a series (column 12 is a reference well containing DMSO, no compound). The compounds were robotically dispensed directly into assay plates (1×=[…]) using a Hummingbird capillary liquid handling instrument (Digilab). Following compound dispense, protein and dye in buffer was added to achieve the final assay volume of 3 μL, followed by 1 μL of silicone oil.

[3] = biological target: T2, human RORγt LBD (Homo sapiens, UniProt P51449); test: RORγt (LBD) reporter assay in HEK293T cells; type: cell-based; conditions: for inhibition at 6 µM: HEK-293T, read-out: RORγt (LBD) Reporter Assay, % inhibition @ 6 μM, 6 μM compound
T2 construct: expressed in transfected cells; host or cells: HEK293T
T2 sequence (P51449 258-518): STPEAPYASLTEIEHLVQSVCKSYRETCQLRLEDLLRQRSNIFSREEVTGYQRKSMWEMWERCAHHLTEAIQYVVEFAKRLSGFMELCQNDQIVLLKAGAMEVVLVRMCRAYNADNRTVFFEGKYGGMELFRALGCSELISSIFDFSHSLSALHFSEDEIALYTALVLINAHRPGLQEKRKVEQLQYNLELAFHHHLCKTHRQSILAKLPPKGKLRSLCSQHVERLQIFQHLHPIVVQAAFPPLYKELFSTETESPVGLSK
Excerpt: RORγt (LBD) Reporter Assay
Cells used in the assay were co-transfected with two constructs. The first construct, pBIND-RORγt LBD, contained the wild type human RORγt LBD fused to the DNA binding domain of the GAL4 protein. The second construct, pGL4.31 (Promega Cat no. C935A), contained multiple GAL4 responsive DNA elements upstream of firefly luciferase. […] The mutant construct was called pBIND-RORγt-AF2.
The pBIND vector contains the GAL4 DNA Binding Domain (GAL4 DBD) and the renilla luciferase gene under control of the SV40 promoter. Renilla luciferase expression serves as a control for transfection efficiency and cell viability.
The reporter assay was performed by transiently transfecting HEK293T cells with 5 μg of pBIND-RORγt LBD or pBIND-RORγt LBD-AF2 and 5 μg pGL4.31 (Promega Cat no. C935A) using Fugene 6 (Invitrogen Cat no. E2691) at a 1:6 ratio of DNA:Fugene 6 in a T-75 flask in which cells were at least 80% confluent. Twenty four hours after bulk transfection, cells were plated into 96-well plates at 50,000 cells/well in phenol-red free DMEM containing 5% Lipid Reduced FCS and Pen/Strep. Six hours after plating, cells were treated with compounds for 24 hours. Media was removed and cells were lysed with 50 μL 1× Glo Lysis Buffer (Promega). Dual Glo Luciferase Reagent (50 μL/well) was then added and firefly luciferase luminescence was read on an Envision after a ten minute incubation. Finally, Stop and Glo reagent (50 μL/well) was added and renilla luciferase luminescence was read on an Envision after a ten minute incubation. […] Agonist compounds increase RORγt-driven luciferase expression, and antagonist or inverse agonist compounds decrease luciferase expression.

| IC50 ([1]; Homo sapiens, CD4+ T) | Kd [2] | IC50 [3] | inhibition at 6 µM [3] | Compound | IC50 [1] | RORγt (LBD) Reporter Assay, % inhibition @ 6 μM ([3]; 6 μM compound, 6 µM) |
| --- | --- | --- | --- | --- | --- | --- |
| 2.1 nM |  |  |  | CCc1nc2ccc(C(O)(c3cnnn3C)c3cnc(C)n3C)cc2c(Cl)c1Cc1ccc(C(F)(F)F)cc1 (single isomer, unassigned) [Example 25b, (4-Chloro-2-ethyl-3-(4-(trifluoromethyl)benzyl)quinolin-6-yl)(1,2-dimethyl-1H-imidazol-5-yl)(1-methyl-1H-1,2,3-triazol-5-yl)methanol] |  |  |
|  |  |  |  | COc1nc2ccc(C(N)(c3ccc(Cl)cc3)c3cncn3C)cc2c(Cl)c1Cc1ccc(-n2cccn2)cc1 (single isomer, unassigned) [Example 118c, (3-(4-(1H-Pyrazol-1-yl)benzyl)-4-chloro-2-methoxyquinolin-6-yl)(4-chlorophenyl)(1-methyl-1H-imidazol-5-yl)methanamine•TFA] | 50 nM |  |
|  | 370 nM | 410 nM |  | CNC(c1ccc2nc(OC)c(Cc3ccc(C(F)(F)F)cc3)c(Cl)c2c1)(c1ccc(C)nc1C)c1cnnn1C (single isomer, unassigned) [Example 121b, 1-(4-Chloro-2-methoxy-3-(4-(trifluoromethyl)benzyl)quinolin-6-yl)-1-(2,6-dimethylpyridin-3-yl)-N-methyl-1-(1-methyl-1H-1,2,3-triazol-5-yl)methanamine•TFA] |  |  |
|  | 130 nM | 220 nM |  | CNC(c1ccc2nc(OC)c(Cc3ccc(C(F)(F)F)cc3)c(Cl)c2c1)(c1ccc(C)nc1C)c1cnnn1C (single isomer, unassigned) [Example 121c, 1-(4-Chloro-2-methoxy-3-(4-(trifluoromethyl)benzyl)quinolin-6-yl)-1-(2,6-dimethylpyridin-3-yl)-N-methyl-1-(1-methyl-1H-1,2,3-triazol-5-yl)methanamine•TFA] |  |  |
|  | > 83000 nM | 1400 nM |  | COc1nc2ccc(C(c3ccc(C)nc3C)(c3cnnn3C)N(C)C)cc2c(Cl)c1Cc1ccc(C(F)(F)F)cc1 (single isomer, unassigned) [Example 122b, 1-(4-Chloro-2-methoxy-3-(4-(trifluoromethyl)benzyl)quinolin-6-yl)-1-(2,6-dimethylpyridin-3-yl)-N,N-dimethyl-1-(1-methyl-1H-1,2,3-triazol-5-yl)methanamine•TFA] |  |  |
|  | 2.2 nM | 87 nM |  | COc1nc2ccc(C(c3ccc(C)nc3C)(c3cnnn3C)N(C)C)cc2c(Cl)c1Cc1ccc(C(F)(F)F)cc1 (single isomer, unassigned) [Example 122c, 1-(4-Chloro-2-methoxy-3-(4-(trifluoromethyl)benzyl)quinolin-6-yl)-1-(2,6-dimethylpyridin-3-yl)-N,N-dimethyl-1-(1-methyl-1H-1,2,3-triazol-5-yl)methanamine•TFA] |  |  |
|  | 16000 nM | 1100 nM | 81% | COc1nc2ccc(C(O)(c3ccc(C(F)(F)F)cc3)c3cccnc3)cc2c(Cl)c1Cc1ccc(-n2cccn2)cc1 (single isomer, unassigned) [Example 162b] |  |  |
|  |  |  |  | COc1nc2ccc(C(O)(c3cnc(C)n3C)c3cnc(C)n3C)cc2c(Cl)c1Cc1ccc(-n2cccn2)cc1 [Example 13, (3-(4-(1H-Pyrazol-1-yl)benzyl)-4-chloro-2-methoxyquinolin-6-yl)bis(1,2-dimethyl-1H-imidazol-5-yl)methanol] | 100 nM |  |
|  | 0.85 nM | 450 nM | 61% | COc1nc2ccc(C(O)(c3ccc(C)nc3C)c3cnnn3C)cc2c(Cl)c1Cc1ccc(F)cc1 (centres unmarked) [Example 48a, (4-Chloro-3-(4-fluorobenzyl)-2-methoxyquinolin-6-yl)(2,6-dimethylpyridin-3-yl)(1-methyl-1H-1,2,3-triazol-5-yl)methanol] |  |  |
|  | 1.7 nM | 52 nM | 84% | COc1nc2ccc(C(O)(c3ccc(C)nc3C)c3cnnn3C)cc2c(C#N)c1Cc1ccc(F)cc1 (centres unmarked) [Example 49a, 6-((2,6-Dimethylpyridin-3-yl)(hydroxy)(1-methyl-1H-1,2,3-triazol-5-yl)methyl)-3-(4-fluorobenzyl)-2-methoxyquinoline-4-carbonitrile] |  |  |
|  | 53 nM | 65 nM | 101% | COc1nc2ccc(C(O)(c3ccccn3)c3cncn3C)cc2c(Cl)c1Cc1ccc(C(F)(F)F)cc1 (centres unmarked) [Example 68, (4-Chloro-2-methoxy-3-(4-(trifluoromethyl)benzyl)quinolin-6-yl)(1-methyl-1H-imidazol-5-yl)(pyridin-2-yl)methanol•TFA] |  |  |
|  | 120 nM | 430 nM | 94% | COc1nc2ccc(C(O)(c3ccc(Cl)cc3)c3cncn3C)cc2c(Cl)c1Cc1cccc(C#N)c1 (centres unmarked) [Example 70, 3-((4-Chloro-6-((4-chlorophenyl)(hydroxy)(1-methyl-1H-imidazol-5-yl)methyl)-2-methoxyquinolin-3-yl)methyl)benzonitrile•TFA] |  |  |

| Compound | IC50 ([1]; Homo sapiens, CD4+ T) | Kd [2] | IC50 [3] | inhibition at 6 µM [3] | IC50 [1] | RORγt (LBD) Reporter Assay, % inhibition @ 6 μM ([3]; 6 μM compound, 6 µM) |
| --- | --- | --- | --- | --- | --- | --- |
| COc1nc2ccc(C(O)(c3oc(C)nc3C)c3cnnn3C)cc2c(Cl)c1Cc1ccc(C(F)(F)F)cc1 (single isomer, unassigned) [Example 156b, (4-chloro-2-methoxy-3-(4-(trifluoromethyl)benzyl)quinolin-6-yl)(2,4-dimethyloxazol-5-yl)(1-methyl-1H-1,2,3-triazol-5-yl)methanol] |  | 75 nM | 87 nM | 98% |  |  |
| COc1nc2ccc(C(O)(c3oc(C)nc3C)c3cnnn3C)cc2c(Cl)c1Cc1ccc(C(F)(F)F)cc1 (single isomer, unassigned) [Example 156c, (4-chloro-2-methoxy-3-(4-(trifluoromethyl)benzyl)quinolin-6-yl)(2,4-dimethyloxazol-5-yl)(1-methyl-1H-1,2,3-triazol-5-yl)methanol] |  | 0.59 nM | 1.9 nM |  |  | 99% |
